The nature of one data set: In vivo toxicity study. Particulars: 4 doses of 25 mg/kg over 2 weeks, mice. Here is the method: PK studies of UC-764864 and UC-764865 were performed in C57BL/6 mice (18-22 g). 10 mg/kg and 20 mg/kg UC-764864 or UC-764865 was administered through intraperitoneal (i.p.) injection. After dosing, blood samples were collected at 15 min, 30 min, 1 h, 2 h, 4 h, 8 h, 12 h, and 24 h. Samples from three animals were collected at each time point. Approximately 500 μL of blood was collected via orbital vein from each mouse, processed, and analyzed by LC-MS. Standard curves were prepared in blood covering the concentration range of 50-3,0000 ng/mL. Using the data from the standard curves, calibration curves were generated for PK tests. For in vivo toxicity studies, 25 mg/kg UC-764864, UC-764865, 10 mg/kg NSC697923 or vehicle control (methocel 0.5% tween-20 0.2%,0.1% DMSO in water) were administered in B6.SJL-Ptprca Pepcb/BoyJ mice (n=3/group) through i.p. injection. For 2 weeks the mice received 4 doses of each compound. Routine body weight and blood counts were performed. At the end of the study, tissues were harvested, placed in 10% buffered formalin, stained with hematoxylin and eosin (H&E) and examined by a pathologist.

For the next data set, the target named is T1, UBE2N/UBE2V1 (Homo sapiens, UniProt P61088).
T1 construct: purchased Enzo Life Science BML-UW9565
T1 sequence (P61088 whole entry): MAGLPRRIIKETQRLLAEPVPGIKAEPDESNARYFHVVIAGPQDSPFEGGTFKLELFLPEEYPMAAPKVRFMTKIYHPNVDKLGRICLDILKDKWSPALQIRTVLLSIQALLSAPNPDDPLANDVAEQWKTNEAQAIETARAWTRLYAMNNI
T1 sequence (Q13404 whole entry partner): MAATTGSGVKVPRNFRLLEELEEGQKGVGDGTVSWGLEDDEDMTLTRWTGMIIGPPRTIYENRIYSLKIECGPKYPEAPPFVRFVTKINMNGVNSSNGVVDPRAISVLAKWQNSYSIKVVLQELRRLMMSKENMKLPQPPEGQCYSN
Briefly: Thioester bond formation assay. It counts as biochemical. The settings on record: read-out: inhibition of UBE2N-Ub thioester conjugate formation. Here is the method:
An in vitro Ubiquitin-E2 thioester (TE) bond formation assay was performed as described (Enzo Life Science, #BML-UW9920-0001, Farmingdale, N.Y.). The reaction was prepared as follows: 10×E2 (UBE2N/Mms2, No. BML-UW9565; UbcH5a, No. BML-UW9050; or UbcH6, Prod. No. BML-UW8710) were incubated with UC-764864 or UC-764865 at 1 or 2 μM for 30 minutes at room temperature. After the incubation period, the following reagents were added to the reaction: distilled water, 10× ubiquitination buffer, inorganic pyrophosphatase solution (100 U/mL in 20 mM Tris-HCl, pH 7.5, Sigma, 83205, St. Louis, Mo.), 50 mM DTT, 0.1 M Mg-ATP, 20×E1 (recombinant human ubiquitin-activating enzyme) and 20× biotinylated ubiquitin to a final volume of 10 p.l. The mixture was incubated for 4 hours at 37° C. The reaction was stopped by adding 10 p.l 2× non-reducing gel loading buffer. 15 p.l of the samples were run on SDS-PAGE gels and transferred to PVDF membrane. […] After washing the membrane for 6×10 mins with TBS-T on a rocking platform, total ubiquitin was detected with ECL detection reagent (Pierce™ ECL Western Blotting Substrate, #32106, Appleton, Wis.) according to the manufacturer's instructions. Detect emitted signal with Biorad ChemiDoc™ MP and analyzed with Image lab software 6.0.1 (Biorad, Hercules, Calif.) or Image J [67]. […]

Data set [1] is described as follows: Microsomal stability (human liver microsomes). It counts as in vitro ADME. For orientation: Liver microsomes are a subcellular fraction often used to study metabolism.
A further data set deals with MOLM-13 and THP-1 cells. Description: Immunoblot / qRT-PCR of NF-κB, STAT1 and IRF signaling. In kind it is cell-based, human. The settings on record: 2 μM. Here is the method:
mRNA expression of selected genes was corroborated by quantitative reverse transcriptase PCR (see primer sequences in Table 2) using cDNA with SYBR® Green or Taqman® gene expression assays (Applied Biosystems, Waltham, Mass.) on the StepOnePlus from Applied Biosystems. Abundance of each transcript was calculated using the Pfaffl Method. Actin or GAPDH were used as housekeeping genes.
For immunoblots, total protein lysates were obtained from cells by lysing the samples in cold RIPA buffer (50 mM Tris-HCl, 150 mM NaCl, 1 mM EDTA, 1% Triton X-100 and 0.1% SDS), in the presence of PMSF, sodium orthovanadate, protease and phosphatase inhibitors. After being re-suspended in RIPA, cells were lysed in the cold room with rocking for 15 min. Protein concentration was evaluated by a BCA assay (Pierce, Waltham, Mass.). SDS sample buffer was added to the lysates and the proteins were separated by SDS-polyacrylamide gel electrophoresis, transferred to PVDF or nitrocellulose membranes, and analyzed by immunoblotting. […] Membranes were imaged with Biorad ChemiDoc™ MP and analyzed with Image lab software 6.0.1 (Biorad, Hercules, Calif.) or Image J [67].
(In western blotting, separated proteins are transferred to a membrane and probed.)

As for `COc1ccc(C(=O)C=CSc2nc3ccc(C)cc3[nH]2)cc1` [UC-764865, 1-(4-methoxyphenyl)-3-[(6-methyl-1H-benzimidazol-2-yl)sulfanyl]prop-2-en-1-one], in the data set “In vivo toxicity study”, the “body weight, hematologic blood parameters, survival” value is recorded as “did not significantly affect”; the “histological evaluation of several tissues” value is listed as “no evidence of overall tissue toxicity”; the “tolerability after repeated administration” value is reported as “no abnormalities noted”.
On to `CCc1ccc(C(=O)C=CSc2nc3ccc(C)cc3[nH]2)cc1` [UC-764864, 1-(4-ethylphenyl)-3-[(6-methyl-1H-benzimidazol-2-yl)sulfanyl]prop-2-en-1-one], for which the inhibition at 1 µM at UBE2N/UBE2V1 (1 μM) is 20%. Besides, the inhibition at 2 µM on UBE2N/UBE2V1 (2 μM) worked out at 80%. In addition, the “metabolism in human liver microsomes” value in data set [1] was “readily metabolized”. Besides, in the data set with MOLM-13 and THP-1 cells, the “baseline NF-κB, STAT1, IRF7 and IRF1 activity in UBE2N-dependent AML cells” value is recorded as “inhibition”.

By inhibition is commonly meant the relative decrease from the control value, in per cent.

The values are drawn from patent US20220267753A1, “RATIONAL THERAPEUTIC TARGETING OF ONCOGENIC IMMUNE SIGNALING STATES IN MYELOID MALIGNANCIES VIA THE UBIQUITIN CONJUGATING ENZYME UBE2N” (CHILDREN'S HOSPITAL MEDICAL CENTER, priority 2019, published 2022).
